Measurements reported in patent US10745401B2, “Condensed lactam derivative” (Sumitomo Dainippon Pharma Co., Ltd., priority 2018, dated 2020).

Key:
human 5-HT1A receptor [1] = molecular target: T1, human 5-HT1A receptor (Homo sapiens (Human), UniProt P08908); experiment: Test 1: binding activity for human 5-HT1A receptor ([3H]8-OH-DPAT, CHO cell membrane fraction)
Description: (§1) Test 1: Evaluation of Binding Activity for Human 5-HT1A Receptor, Human 5-HT2A Receptor, and Human D2 Receptor
(§2) Binding affinity of the present compound for human 5-HT1A receptor, human 5-HT2A receptor, and human D2 receptor was measured by the following procedures.
(§3) Each mixture was incubated at room temperature for 60 minutes. Then, the mixture was added quickly on a glassfiber filter plate (Multiscreen FB, Millipore, Inc.) coated with 0.3% aqueous polyethylenimine, and vacuum-filtered. Radioactivity remaining on the filter was measured with a liquid scintillation counter (PerkinElmer, Inc.). Binding inhibition rate was calculated from the following formula.
IC50 value was calculated by Hill analysis (Physiology, 1910, 40, 190-200). Ki of each compound was calculated from the following formula. Binding inhibition constant (Ki)=IC50/(1+S/Kd) wherein S is concentration of ligand; Kd is a binding dissociation constant of ligand to membrane, which is calculated from a saturated binding experiment conducted with the same cell membrane. A small Ki value means strong binding ability to a receptor.

human D2 receptor = human D2 receptor (Homo sapiens (Human), UniProt P14416); experiment: Test 1: binding activity for human D2 receptor ([3H]Spiperone, CHO cell membrane fraction); conditions: human D2 receptor, [3H]Spiperone
human D2 receptor, sequence (P14416 whole entry): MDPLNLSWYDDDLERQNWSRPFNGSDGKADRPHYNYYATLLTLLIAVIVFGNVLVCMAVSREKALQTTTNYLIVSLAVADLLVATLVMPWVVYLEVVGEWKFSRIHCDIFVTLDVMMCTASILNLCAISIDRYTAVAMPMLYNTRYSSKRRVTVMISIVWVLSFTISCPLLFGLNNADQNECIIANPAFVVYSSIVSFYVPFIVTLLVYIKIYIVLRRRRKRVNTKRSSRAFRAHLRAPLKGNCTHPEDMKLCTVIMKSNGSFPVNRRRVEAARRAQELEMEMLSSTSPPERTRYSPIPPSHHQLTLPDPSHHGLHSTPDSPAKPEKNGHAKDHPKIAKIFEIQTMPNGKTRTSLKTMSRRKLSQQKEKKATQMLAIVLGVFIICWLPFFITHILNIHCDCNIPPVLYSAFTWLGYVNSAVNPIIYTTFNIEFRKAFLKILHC
Description: as §1, §2, §3
Ki of each compound was calculated from the following formula. Binding inhibition constant (Ki)=IC50/(1+S/Kd) wherein S is concentration of ligand; Kd is a binding dissociation constant of ligand to membrane, which is calculated from a saturated binding experiment conducted with the same cell membrane. A small Ki value means strong binding ability to a receptor.

human 5-HT1A receptor [2] = molecular target: T1, human 5-HT1A receptor; experiment: Test 2: agonist activity for human 5-HT1A receptor ([35S]GTPγS binding); assay type: biochemical; conditions: for EC50: [35S]GTPγS binding, concentration at which half the activity of Emax was obtained; for Emax at 10 µM: agonist activity in the presence of 10 μM of compound, relative to 100 μmol/L 5-HT
Description: Test 2: Evaluation of Agonist Activity for Human 5-HT1A Receptor
CHO cell membrane fraction in which human 5-HT1A receptor was expressed as used in Test 1 was purchased. To a buffer containing guanosine diphosphate were added a test compound dissolved in DMSO, each receptor membrane sample diluted with buffer, and [^35S] Guanosine 5′-O-[gamma-thio]triphosphate (GTPγS). The mixture was incubated at room temperature for 60 minutes. Then, the mixture was added quickly on a glassfiber filter plate (Multiscreen FB, Millipore, Inc.), and vacuum-filtered. Radioactivity remaining on the […] was measured with a liquid scintillation counter. Agonist activity was calculated from the following formula.

[3] = Test 4: metabolic stability test in human hepatic microsome; assay type: in vitro ADME; conditions: 0.1 mg/mL microsome, 0.1 μmol/L compound, 37° C., 30 minutes
Description: Test 4: Metabolic Stability Test in Human Hepatic Microsome
The stability of the present compound in human hepatic microsome metabolism was evaluated as mentioned below. Human hepatic microsome was obtained from Xenontech. Human hepatic microsome, NADPH, and each test compound were mixed in 25 mmol/L phosphate buffer solution (pH 7.4) to reach the following concentrations as shown below, and the mixture was incubated at 37° C. for 30 minutes. • Human hepatic microsome: 0.1 mg/mL • NAPDH: 3.2 mmol/L • Test compound: 0.1 μmol/L
The residual ratio of the test compound in each sample after 30 minutes was measured by LC-MS, and the metabolic stability in human hepatic microsome was calculated from the following formula. Metabolic stability in human hepatic microsome (mL/min/mg protein)=−LN (residual ratio)/30/0.1

hERG channel = hERG channel (Homo sapiens (Human), UniProt Q12809); experiment: Test 6-1: inhibitory activity for hERG channel (auto patch clamp, Qpatch); assay type: cell-based; conditions: whole cell auto patch clamp, hERG-CHO cells; read-out: hERG inhibition IC50
hERG channel, sequence (Q12809 whole entry): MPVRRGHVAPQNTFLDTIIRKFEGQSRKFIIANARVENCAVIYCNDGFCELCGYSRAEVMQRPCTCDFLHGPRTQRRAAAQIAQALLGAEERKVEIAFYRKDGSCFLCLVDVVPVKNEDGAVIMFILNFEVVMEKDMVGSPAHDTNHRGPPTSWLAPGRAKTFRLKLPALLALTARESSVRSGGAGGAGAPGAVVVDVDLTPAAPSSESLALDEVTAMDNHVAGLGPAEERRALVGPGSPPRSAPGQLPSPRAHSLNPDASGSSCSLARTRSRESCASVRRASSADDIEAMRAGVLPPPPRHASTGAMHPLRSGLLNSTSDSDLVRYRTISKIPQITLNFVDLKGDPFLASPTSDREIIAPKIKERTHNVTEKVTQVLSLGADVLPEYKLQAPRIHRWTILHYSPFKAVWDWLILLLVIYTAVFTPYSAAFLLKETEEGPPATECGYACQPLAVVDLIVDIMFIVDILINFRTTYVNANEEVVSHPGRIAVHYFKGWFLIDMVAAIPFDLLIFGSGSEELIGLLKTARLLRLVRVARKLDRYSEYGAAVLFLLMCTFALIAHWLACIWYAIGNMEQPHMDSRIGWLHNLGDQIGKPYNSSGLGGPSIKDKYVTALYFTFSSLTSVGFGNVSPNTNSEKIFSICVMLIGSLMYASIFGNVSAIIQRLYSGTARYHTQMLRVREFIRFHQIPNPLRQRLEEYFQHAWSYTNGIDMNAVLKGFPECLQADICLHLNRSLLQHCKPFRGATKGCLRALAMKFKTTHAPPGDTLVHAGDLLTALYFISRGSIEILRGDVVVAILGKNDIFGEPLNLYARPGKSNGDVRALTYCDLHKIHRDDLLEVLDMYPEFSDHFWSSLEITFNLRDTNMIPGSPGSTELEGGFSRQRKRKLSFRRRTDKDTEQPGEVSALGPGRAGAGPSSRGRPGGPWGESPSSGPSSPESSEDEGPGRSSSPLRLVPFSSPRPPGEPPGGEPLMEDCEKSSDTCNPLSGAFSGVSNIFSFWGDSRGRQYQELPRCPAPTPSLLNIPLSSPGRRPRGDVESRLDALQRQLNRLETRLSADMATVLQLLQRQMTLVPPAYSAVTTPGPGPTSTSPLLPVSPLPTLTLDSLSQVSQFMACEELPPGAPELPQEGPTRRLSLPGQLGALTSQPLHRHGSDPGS
Description: Test 6-1: Evaluation of Inhibitory Activity for hERG Channel
Inhibitory activity of the present compound for hERG channel was measured by whole cell patch clamp method with an auto patch clamp system using CHO cells in which hERG channel involved in human rapidly activating delayed rectifier potassium current (IKr) was forcibly expressed.
hERG-CHO cells purchased from ChanTest Cop. were cultured in a CO2 incubator at 37° C., and dissociated from a flask with trypsin shortly before the measurement of hERG current, to prepare a cell suspension.
Extracellular fluid: 2 mmol/L CaCl2, 1 mmol/L MgCl2, 10 mmol/L HEPES, 4 mmol/L KCl, 145 mmol/L NaCl, 10 mmol/L Glucose
Intracellular fluid: 5.4 mmol/L CaCl2, 1.8 mmol/L MgCl2, 10 mmol/L HEPES, 31 mmol/L KOH, 10 mmol/L EGTA, 120 mmol/L KCl, 4 mmol/L Na2-ATP
Test compound solution: Test compound was dissolved in DMSO to reach the concentration of 2 mmol/L or 20 mmol/L, in order to prepare a test compound solution. […] (Measurement of Current Value and Data Analysis)
The cell suspension, the extracellular fluid, the intracellular fluid, and the measurement plate were set in the auto patch clamp system, and hERG current was measured by whole cell patch clamp method. […] Each pulse interval was 15 seconds. The data analysis was carried out with Qpatch Assay Software (Biolin Scientific). The test was carried out by applying incrementally 4 concentrations of each test compound, and the average of the maximum peak tail currents which were obtained from the last 3 stimulations in each concentration was determined as the evaluated data. Based on the current inhibition rate for a pre-applied current at each concentration of each test compound, IC50 value was calculated by Hill equation with the software.

T1 sequence (P08908 whole entry): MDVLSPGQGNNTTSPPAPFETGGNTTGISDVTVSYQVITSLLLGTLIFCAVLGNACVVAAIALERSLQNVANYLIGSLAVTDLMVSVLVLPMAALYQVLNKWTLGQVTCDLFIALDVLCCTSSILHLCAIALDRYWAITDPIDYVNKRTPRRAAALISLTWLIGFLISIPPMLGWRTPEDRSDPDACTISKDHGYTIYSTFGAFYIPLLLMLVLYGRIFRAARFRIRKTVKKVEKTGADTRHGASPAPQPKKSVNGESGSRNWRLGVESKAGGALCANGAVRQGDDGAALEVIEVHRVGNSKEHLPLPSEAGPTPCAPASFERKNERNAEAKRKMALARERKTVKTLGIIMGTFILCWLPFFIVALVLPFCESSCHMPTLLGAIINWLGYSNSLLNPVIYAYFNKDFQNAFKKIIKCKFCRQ

SMILES	Ki (human 5-HT1A receptor [1]) [nM]	Ki (human D2 receptor) [nM]	EC50 (human 5-HT1A receptor [2]) [nM]	Emax at 10 µM (human 5-HT1A receptor [2]) [%]	Metabolic stability in human hepatic microsome [3] [mL/min/mg protein]	IC50 (hERG channel) [nM]
Cc1cncc2c1CCN(CCN1CCC(c3noc4ccccc34)CC1)C2=O [Example 138]	27.6	76	100	32	0.083	1200
O=C1c2cn(C3CC3)nc2CCN1CCN1CCC(c2noc3ccccc23)CC1 [Example 76]	6.48	472	4.13	35	0.018	< 270
Cn1ncc2c1CCCN(CCN1CCN(c3nsc4ccccc34)CC1)C2=O [Example 44]	0.22	121	1.8	76	0.04	7700
O=C1c2cn[nH]c2CCN1CCN1CCC(c2noc3ccccc23)CC1 [Example 189, 5-{2-[4-(1,2-Benzoisoxazol-3-yl)piperidin-1-yl]ethyl}-1,5,6,7-tetrahydro-4H-pyrazolo[4,3-c]pyridin-4-one]	98.4	–	690	49	<0.05	1800
O=c1c2cnccc2ccn1CCN1CCN(c2nsc3ccccc23)CC1 [Example 11]	2.95	316	–	–	0.245	2600
O=C1c2cccnc2CCN1CCN1CCC(c2noc3ccccc23)CC1 [Example 128]	83.2	625	35.9	33	<0.05	–
O=C1c2cnn(C3CC3)c2CCN1CCN1CCC(c2noc3ccccc23)CC1 [Example 161]	203	216	6180	17	<0.05	–
CC(C)c1nc2c(o1)C(=O)N(CCN1CCC(c3noc4ccccc34)CC1)CC2 [Example 164]	11.7	–	69.5	48	0.097	1000
CC(C)n1ncc2c1CCN(CCN1CCN(c3nsc4ccccc34)CC1)C2=O [Example 158]	217	327	921	12	0.113	–
O=c1c2cnc(C3CC3)nc2ccn1CCN1CCN(c2nsc3ccccc23)CC1 [Example 182]	10.9	1400	7.85	40	0.726	–
O=C1c2oc(C3CC3)nc2CCN1CCN1CCN(c2nsc3ccccc23)CC1 [Example 67]	1.17	–	3.19	65	0.269	1600
CC(C)n1ncc2c1CCN(CCN1CCC(c3noc4ccccc34)CC1)C2=O [Example 159]	255	373	854	18	<0.05	–

Further lines, with some results ahead:

Ki (human 5-HT1A receptor [1]) [nM]	Ki (human D2 receptor) [nM]	EC50 (human 5-HT1A receptor [2]) [nM]	Emax at 10 µM (human 5-HT1A receptor [2]) [%]	Metabolic stability in human hepatic microsome [3] [mL/min/mg protein]	SMILES	IC50 (hERG channel) [nM]
13.8	508	55	61	0.196	CC(C)n1cc2c(n1)CCN(CCN1CCN(c3nsc4ccccc34)CC1)C2=O [Example 162]	1200
10.9	131	79.3	45	<0.01	Cn1cc2c(n1)CCCN(CCN1CCC(c3noc4ccccc34)CC1)C2=O [Example 41]	500
7.85	703	82.6	53	<0.05	O=C1c2nc(F)ccc2CCN1CCN1CCC(c2noc3ccccc23)CC1 [Example 188, 7-{2-[4-(1,2-Benzoisoxazol-3-yl)piperidin-1-yl]ethyl}-2-fluoro-6,7-dihydro-1,7-naphthyridin-8(5H)-one]	1900
200	219	7670	11	<0.05	O=C1c2c(Br)n[nH]c2CCN1CCN1CCC(c2noc3ccccc23)CC1 [Example 192, 5-{2-[4-(1,2-Benzoisoxazol-3-yl)piperidin-1-yl]ethyl}-3-bromo-1,5,6,7-tetrahydro-4H-pyrazolo[4,3-c]pyridin-4-one]	700
11.6	312	755	43	0.013	O=C1c2[nH]ncc2CCN1CCN1CCC(c2noc3ccccc23)CC1 [Example 98, 6-{2-[4-(1,2-Benzoisoxazol-3-yl)piperidin-1-yl]ethyl}-1,4,5,6-tetrahydro-7H-pyrazolo[3,4-c]pyridin-7-one]	1100
7.91	2580	77.9	62	0.143	Cc1ncc2c(=O)n(CCN3CCN(c4nsc5ccccc45)CC3)ccc2n1 [Example 95]	–
